Key:
[1] = test system: d(CATTGACAGAC)2 (single mismatch site); experiment: CD titration, affinity constant for single-mismatch duplex; format: binding; details: derived from CD titrations; 5 μM duplex DNA, 10 mM sodium phosphate pH 7.0, 40 mM NaCl, room temperature
Method: (§1) The changes are generally monitored until saturation is reached. The equilibrium constant can be determined using standard techniques, such as Scatchard plot, the McGhee Von Hippel model, or least squares, for analysis.
(§2) All CD measurements were recorded on a Jasco J-810 CD spectropolarimeter at room temperature and cell length of 1 cm. Titrations were performed by incrementally adding aliquots of Im/Py/Py-Pt to a 2600 μL solution of 5 μM duplex DNA. After each addition, an average CD spectrum from 240 to 400 nm (20 accumulations) was recorded. DNA concentration was 5 μM. The concentration of Im/Py/Py-Pt ranged from 0 to 10 μM. Solution conditions were 10 mM sodium phosphate (pH 7.0) and 40 mM NaCl.

[2] = test system: d(CATTGAGAGAC)2 (double mismatch site); experiment: CD titration, affinity constant for double-mismatch duplex; format: binding; details: derived from CD titrations; 5 μM duplex DNA, 10 mM sodium phosphate pH 7.0, 40 mM NaCl, room temperature
Method: as §1, §2

[3] = test system: d(CATTGTCAGAC)2 (target site); experiment: CD titration, affinity constant for target-site duplex; format: binding; details: derived from CD titrations; 5 μM duplex DNA, 10 mM sodium phosphate pH 7.0, 40 mM NaCl, room temperature
Method: as §1, §2

[4] = test system: relaxed and negatively supercoiled pUC19 DNA; details: value reported for cisplatin; cited from earlier work
[5] = test system: recombinant pSP64 derivative; experiment: In vitro transcription assay (inhibition of RNA synthesis); format: biochemical; details: increasing molar concentration; after 12 hour platination in the dark at 4° C.; 40 mM Tris-HCl pH 7.9
Method: FIG. 5—In vitro Transcription Assay “trans-Im/Py/Py-[CONH(CH2)2—NH2)Pt(NH3)2Cl” (“DJ1953-2”) The Inhibition of RNA synthesis by DJ1953-2 was assessed using a recombinant pSP64 derivative. Incubations were carried out in 40 mM Tris-HCl (pH 7.9), 6 mM MgCl2, 2 mM spermidine, 10 mM NaCl. Lane (1) 100-500 bases RNA marker; (2) to (8) increasing molar concentration of DJ1953-2. […] Experiments were conducted after 12 hour platination reactions (in the dark at 4° C.).
The Inhibition of RNA synthesis by DJ1953-2 was assessed using a recombinant pSP64 derivative. Incubations were carried out in 40 mM Tris-HCl (pH 7.9), 6 mM MgCl2, 2 mM spermidine, 10 mM NaCl. Lane (1) 100-500 bases RNA marker; Lanes (2) to (8) increasing molar concentration of DJ1953-2. […] Experiments were conducted after 12 hour platination reactions (in the dark at 4° C.).

[6] = test system: relaxed and negatively supercoiled pUC19 DNA; experiment: DNA unwinding experiment by gel electrophoresis; format: binding; details: pUC19 plasmid incubated 1.5 hr at 37° C., rb 0-0.074
Method: Lanes: 0 Control rb=0; 1, rb=0.008; 2, rb=0.0.016; 3, rb=0.025; 4, rb=0.033; 5, rb=0.041; 6, rb=0.049; 7, rb=0.057; 8, rb=0.066; 9, rb=0.074.
The unwinding angle was determined to be 13° for this experiment, which is the same as that reported for cisplatin (13°). The plasmid was incubated with Im/Py/Py-Pt for 1.5 hr at 37° C. Lanes: 0 Control rb=0; 1, rb=0.008; 2, rb=0.0.016; 3, rb=0.025; 4, rb=0.033; 5, rb=0.041; 6, rb=0.049; 7, rb=0.057; 8, rb=0.066; 9, rb=0.074. The top bands correspond to the form of nicked plasmid and the bottom bands to the closed, negatively supercoiled plasmid shown in FIG. 4.

Row | Compound | apparent first-order affinity constant K for binding site d(CATTGACAGAC)2 [1] | apparent first-order affinity constant K for binding site d(CATTGAGAGAC)2 [2] | apparent first-order affinity constant K for binding site d(CATTGTCAGAC)2 [3] | unwinding angle (reported) [4] [°] | inhibition of RNA synthesis (full-length transcript, 335 bases) [5] | unwinding angle [6] [°]
1 | Cn1cc(NC(=O)c2cc(NC(=O)c3nccn3C)cn2C)cc1C(=O)NCCCCCC[NH][Pt]([NH2])([NH2])[Cl] [DJ-1953-6, trans-Im/Py/Py-[CONH(CH2)6—NH2)Pt(NH3)2Cl] | 4.4 × 10^5 (0.2) M^−1 | 1.3 × 10^6 (0.1) M^−1 | 2.4 × 10^6 (0.1) M^−1 |  |  | 
2 | N.N.[Cl][Pt][Cl] [cisplatin, cis-diamminedichloroplatinum(II)] |  |  |  | 13 |  | 
3 | tans-Im/Py/Py-[CONH(CH2)2—NH2)Pt(NH3)2Cl [DJ-1953-2] | 5.6 × 10^5 (0.2) M^−1 | 3.0 × 10^5 (0.1) M^−1 | 1.2 × 10^6 (0.1) M^−1 |  | inhibition of the full-length transcript (FLT) can be seen | 
4 | trans-Im/Py/Py-Pt(Cl)(NH3)2 |  |  |  |  |  | 13
